Measurements reported in article PMC6047346 (Journal of medicinal chemistry, 2017).
Where two headings read alike, the source gives them in different places.

Assays:
U937 cells [1] = settings: cited from earlier work
SphK1 = settings: both the rat and human enzymes; cited from earlier work
rats = settings: cited from earlier work
human SphK1 = human SphK1 (Homo sapiens, UniProt Q9NYA1); experiment: Sphingosine kinase assay, recombinant human SphK1, γ-[32P]ATP; settings: for remaining activity at 0.3 µM: read-out: hSphK1 (SphK activity, % control, no inhibitor added)
human SphK1, sequence (Q9NYA1 whole entry): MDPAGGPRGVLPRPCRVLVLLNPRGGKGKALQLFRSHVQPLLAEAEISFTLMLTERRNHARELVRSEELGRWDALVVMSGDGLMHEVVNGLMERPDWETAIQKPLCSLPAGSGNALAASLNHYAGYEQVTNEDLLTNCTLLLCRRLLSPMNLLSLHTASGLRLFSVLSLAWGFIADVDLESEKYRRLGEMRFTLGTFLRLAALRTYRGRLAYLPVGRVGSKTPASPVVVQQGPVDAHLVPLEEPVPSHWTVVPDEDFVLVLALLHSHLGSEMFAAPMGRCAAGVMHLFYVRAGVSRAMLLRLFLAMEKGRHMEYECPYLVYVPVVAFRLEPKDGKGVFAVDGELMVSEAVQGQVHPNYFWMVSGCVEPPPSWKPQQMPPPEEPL

human SphK2 = target: T1, human SphK2 (Homo sapiens, UniProt Q9NRA0); experiment: Sphingosine kinase assay, recombinant human SphK2, γ-[32P]ATP; settings: for inhibition at 0.3 µM: read-out: SphK2 inhibition (decrease of activity); for hSphK2 (SphK activity, % control, no inhibitor added): compounds at 0.3 μM, triplicate, 10 μM sphingosine, 250 μM γ-[32P]ATP
T1 sequence (Q9NRA0 1-654): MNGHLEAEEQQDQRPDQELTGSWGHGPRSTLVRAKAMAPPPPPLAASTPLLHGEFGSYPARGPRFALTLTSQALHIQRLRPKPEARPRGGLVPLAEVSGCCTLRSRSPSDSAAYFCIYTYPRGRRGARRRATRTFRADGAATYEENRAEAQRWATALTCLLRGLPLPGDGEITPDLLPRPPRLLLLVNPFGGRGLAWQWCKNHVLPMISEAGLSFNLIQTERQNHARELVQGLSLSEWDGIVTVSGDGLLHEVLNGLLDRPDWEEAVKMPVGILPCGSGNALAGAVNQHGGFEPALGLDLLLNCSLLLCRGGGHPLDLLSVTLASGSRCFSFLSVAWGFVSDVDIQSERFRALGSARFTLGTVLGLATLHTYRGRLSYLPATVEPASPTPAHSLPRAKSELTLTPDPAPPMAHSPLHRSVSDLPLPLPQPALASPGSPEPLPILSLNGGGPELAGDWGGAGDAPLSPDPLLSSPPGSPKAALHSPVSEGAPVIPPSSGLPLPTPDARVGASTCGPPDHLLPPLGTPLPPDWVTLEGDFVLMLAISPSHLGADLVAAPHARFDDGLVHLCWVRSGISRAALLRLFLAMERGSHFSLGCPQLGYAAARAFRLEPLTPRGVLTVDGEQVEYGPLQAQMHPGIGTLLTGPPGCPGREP

U937 cells [2] = experiment: Sphingolipid; format: cell-based, human; settings: 2 h incubation, LC-MS-MS
C57BL/6 mice = experiment: Blood S1P levels in mice after ip dosing, LC-MS-MS; format: in vivo; settings: single 10 mg/kg ip dose
[3] = read-out: hSphK2 (SphK activity, % control, no inhibitor added)
[4] = read-out: SphK2 activity remaining

In the case of `CCCCCCCCc1ccc(-c2noc(C[C@@H]3CCCN3C(=N)N)n2)cc1` [Compound 3], the “S1P levels in cultured human U937 leukemia cells” value (U937 cells [1]) is listed as “reduce S1P levels”, the “selectivity for SphK1 over SphK2” value (SphK1) is listed as greater than 100 fold and the “S1P levels in the bloodstream of rats” value (rats) is listed as “reduce S1P levels”.
In the case of `Cl.N=C(N)N1CCC[C@H]1Cc1nc(-c2ccc(Nc3nc(-c4ccccc4)cs3)cc2)no1` [Compound 20a, (S)-amino(2-((3-(4-((4-phenylthiazol-2-yl)amino)phenyl)-1,2,4-oxadiazol-5-yl)methyl)pyrrolidin-1-yl)methaniminium chloride], the “SphK1 inhibition, in words” value (human SphK1; screen at 0.3 μM) is reported as “poor inhibition” and the “SphK2 inhibition, in words” value (human SphK2; screen at 0.3 μM) is reported as “poor inhibition”.
In the case of `N=C(N)N1CCC[C@H]1Cc1nc(-c2ccc(Nc3nc(-c4ccncc4)cs3)cc2)no1.O=C(O)C(F)(F)F` [Compound 20b, (S)-amino(2-((3-(4-((4-(pyridin-4-yl)thiazol-2-yl)amino)phenyl)-1,2,4-oxadiazol-5-yl)methyl)pyrrolidin-1-yl)methaniminium trifluoroacetate], the “SphK1 inhibition, in words” value (human SphK1; screen at 0.3 μM) is reported as “inactive” and the “SphK2 inhibition, in words” value (human SphK2; screen at 0.3 μM) is reported as “inactive”.
For `Cl.N=C(N)N1CCC[C@H]1Cc1nc(-c2ccc(Nc3nc(-c4cc(C(F)(F)F)cc(C(F)(F)F)c4)cs3)cc2)no1` [Compound 20bb, (S)-amino(2-((3-(4-((4-(3,5-bis(trifluoromethyl)phenyl)thiazol-2-yl)amino)phenyl)-1,2,4-oxadiazol-5-yl)methyl)pyrrolidin-1-yl)methaniminium chloride], the “SphK1 inhibition, in words” value (human SphK1; concentrations up to 1 μM) was “inactive”.
With `Cl.N=C(N)N1CCC[C@H]1Cc1nc(-c2ccc(Nc3nc(-c4cccnc4)cs3)cc2)no1` [Compound 20c, (S)-amino(2-((3-(4-((4-(pyridin-3-yl)thiazol-2-yl)amino)phenyl)-1,2,4-oxadiazol-5-yl)methyl)pyrrolidin-1-yl)methaniminium chloride] the “SphK1 inhibition, in words” value (human SphK1; screen at 0.3 μM) was “inactive” and the “SphK2 inhibition, in words” value (human SphK2; screen at 0.3 μM) was “inactive”.
With `Cl.N=C(N)N1CCC[C@H]1Cc1nc(-c2ccc(Nc3nc(-c4ccc(-c5ccccc5)cc4)cs3)cc2)no1` [Compound 20dd, (S)-(2-((3-(4-((4-([1,1′-biphenyl]-4-yl)thiazol-2-yl)amino)phenyl)-1,2,4-oxadiazol-5-yl)methyl)pyrrolidin-1-yl)(amino)methaniminium chloride] the “S1P levels in U937 cells” value (U937 cells [2]) was “concentration-dependent decrease”, the “Sph (sphingosine) levels in U937 cells” value (U937 cells [2]) was “remained constant” and the “blood S1P levels” value (C57BL/6 mice; after 24 hours) was “returned to basal levels”. The “blood S1P levels” value (C57BL/6 mice; two and six hour time points) was “increased”.
With `Cl.N=C(N)N1CCC[C@H]1Cc1nc(-c2ccc(Nc3nc(-c4cccc(C(F)(F)F)c4)cs3)cc2)no1` [Compound 20l, (S)-amino(2-((3-(4-((4-(3-(trifluoromethyl)phenyl)thiazol-2-yl)amino)phenyl)-1,2,4-oxadiazol-5-yl)methyl)pyrrolidin-1-yl)methaniminium chloride] the “S1P levels in U937 cells” value (U937 cells [2]) was “concentration-dependent decrease” and the “Sph (sphingosine) levels in U937 cells” value (U937 cells [2]) was “remained constant”.
Molecule `Cc1ccc(-c2csc(Nc3ccc(-c4noc(C[C@@H]5CCCN5C(=N)N)n4)cc3)n2)cc1` [Compound 20n, (S)-amino(2-((3-(4-((4-(p-tolyl)thiazol-2-yl)amino)phenyl)-1,2,4-oxadiazol-5-yl)methyl)pyrrolidin-1-yl)methaniminium chloride] has a remaining activity at 0.3 µM (human SphK1) of 89 ± 0.7%, an inhibition at 0.3 µM (human SphK2) of less than 30% and a remaining activity at 0.3 µM (human SphK2; [3]) of 44 ± 12%.
With `COc1ccc(-c2csc(Nc3ccc(-c4noc(C[C@@H]5CCCN5C(=N)N)n4)cc3)n2)cc1` [Compound 20o, (S)-amino(2-((3-(4-((4-(4-methoxyphenyl)thiazol-2-yl)amino)phenyl)-1,2,4-oxadiazol-5-yl)methyl)pyrrolidin-1-yl)methaniminium chloride] the remaining activity at 0.3 µM (human SphK1) was 58 ± 4%, the inhibition at 0.3 µM (human SphK2) was less than 30% and the remaining activity at 0.3 µM (human SphK2; [3]) was 82 ± 6%.
`CCOc1ccc(-c2csc(Nc3ccc(-c4noc(C[C@@H]5CCCN5C(=N)N)n4)cc3)n2)cc1` [Compound 20p, (S)-amino(2-((3-(4-((4-(4-ethoxyphenyl)thiazol-2-yl)amino)phenyl)-1,2,4-oxadiazol-5-yl)methyl)pyrrolidin-1-yl)methaniminium chloride] gave a remaining activity at 0.3 µM (human SphK1) of 75 ± 0.2%, an inhibition at 0.3 µM (human SphK2) of less than 30% and a remaining activity at 0.3 µM (human SphK2; [3]) of 80 ± 7%.
Molecule `N=C(N)N1CCC[C@H]1Cc1nc(-c2ccc(Nc3nc(-c4ccc(OC(F)(F)F)cc4)cs3)cc2)no1` [Compound 20r, (S)-amino(2-((3-(4-((4-(4-(trifluoromethoxy)phenyl)thiazol-2-yl)amino)phenyl)-1,2,4-oxadiazol-5-yl)methyl)pyrrolidin-1-yl)methaniminium chloride] has a remaining activity at 0.3 µM (human SphK2; [4]) of roughly 40% and a remaining activity at 0.3 µM (human SphK2; [3]) of 84 ± 2%.
For `N=C(N)N1CCC[C@H]1Cc1nc(-c2ccc(Nc3nc(-c4cccc(OC(F)(F)F)c4)cs3)cc2)no1` [Compound 20s, (S)-amino(2-((3-(4-((4-(3-(trifluoromethoxy)phenyl)thiazol-2-yl)amino)phenyl)-1,2,4-oxadiazol-5-yl)methyl)pyrrolidin-1-yl)methaniminium chloride], the remaining activity at 0.3 µM (human SphK1) was 90 ± 1% and the remaining activity at 0.3 µM (human SphK2; [3]) was 100 ± 2%.
In the case of `COc1ccc(-c2csc(Nc3ccc(-c4noc(C[C@@H]5CCCN5C(=N)N)n4)cc3)n2)cc1Cl.Cl` [Compound 20v, (S)-amino(2-((3-(4-((4-(3-chloro-4-methoxyphenyl)thiazol-2-yl)amino)phenyl)-1,2,4-oxadiazol-5-yl)methyl)pyrrolidin-1-yl)methaniminium chloride], the “SphK1 inhibition, in words” value (human SphK1; screen at 0.3 μM) is reported as “no SphK1 inhibition” and the remaining activity at 0.3 µM (human SphK2; [4]) is reported as roughly 70%.
In the case of `Cl.N=C(N)N1CCC[C@H]1Cc1nc(-c2ccc(Nc3nc(-c4ccc(-c5ccc(C(F)(F)F)cc5)cc4)cs3)cc2)no1` [Compound 23c, (S)-amino(2-((3-(4-((4-(4′-(trifluoromethyl)-[1,1′-biphenyl]-4-yl)thiazol-2-yl)amino)phenyl)-1,2,4-oxadiazol-5-yl)methyl)pyrrolidin-1-yl)methaniminium chloride], the “SphK1 inhibition, in words” value (human SphK1; screen at 0.3 μM) is reported as “inactive” and the “SphK2 inhibition, in words” value (human SphK2; screen at 0.3 μM) is reported as “inactive”.
For `Cl.N=C(N)N1CCC[C@H]1Cc1nc(-c2ccc(Nc3nc(-c4ccc(-c5cccc(C(F)(F)F)c5)cc4)cs3)cc2)no1` [Compound 23d, (S)-amino(2-((3-(4-((4-(3′-(trifluoromethyl)-[1,1′-biphenyl]-4-yl)thiazol-2-yl)amino)phenyl)-1,2,4-oxadiazol-5-yl)methyl)pyrrolidin-1-yl)methaniminium chloride], the “SphK1 inhibition, in words” value (human SphK1; screen at 0.3 μM) was “inactive” and the “SphK2 inhibition, in words” value (human SphK2; screen at 0.3 μM) was “inactive”.
Molecule `N=C(N)N1CCC[C@H]1Cc1nc(-c2ccc(Oc3nc(-c4ccc(C(F)(F)F)cc4)cs3)cc2)no1` [Compound 31, (S)-amino(2-((3-(4-((4-(4-(trifluoromethyl)phenyl)thiazol-2-yl)oxy)phenyl)-1,2,4-oxadiazol-5-yl)methyl)pyrrolidin-1-yl)methaniminium chloride] has an inhibition at 0.3 µM (human SphK1; read-out: SphK1 inhibition (decrease of activity)) of roughly 45% and an inhibition at 0.3 µM (human SphK2) of roughly 45%.
In the case of “(S)-(2-((3-(4-((4-([1,1′-biphenyl]-4-yl)thiazol-2-yl)amino)phenyl)-1,2,4-oxadiazol-5-yl)methyl)pyrrolidin-1-yl)(amino)methaniminium chloride [Compound 34]”, the “hSphK2 (SphK activity, % control, no inhibitor added)” value (human SphK2) is reported as 100 ±5 % control and the “SphK2 inhibition, in words” value (human SphK2; concentrations up to 1 μM) is reported as “completely inactive”.
In the case of “(S)-amino(2-((3-(4-((4-(benzofuran-2-yl)thiazol-2-yl)amino)phenyl)-1,2,4-oxadiazol-5-yl)methyl)pyrrolidin-1-yl)methaniminium chloride [Compound 20ee]”, the “hSphK2 (SphK activity, % control, no inhibitor added)” value (human SphK2) is reported as 67 ±5 % control.
